Experimental data published in patent US20260167622A1, “PAN-KRAS DEGRADING AGENT, AND PREPARATION METHOD THEREFOR AND USE THEREOF” (LEADINGTAC PHARMACEUTICAL (SHAOXING) CO., LTD., priority 2022, published 2026).

What was measured:
Settings in all cases: 25° C., 1 h
Human KRAS WT = molecular target: T1, Human KRAS WT (Homo sapiens, UniProt P01116); assay: KRAS WT:GTP binding assay (HTRF kit)
T1 construct: purchased PerkinElmer
Method: Test Example 3: KRAS WT Binding Assay
In this method, the inhibitory effects of the compounds on the binding of KRAS WT to GTP were assayed by a homogeneous time-resolved fluorescence (HTRF) technique using a KRAS WT:GTP binding assay kit (PerkinElmer).
(§1) The experimental procedures were as follows (refer to the kit instructions for detailed test methods): the compounds of the present disclosure were each firstly dissolved in DMSO at a stock concentration of 20 mM. The stock solutions of the compounds were diluted in an equal gradient with DMSO, and then were subjected to second dilution with a buffer in the kit, so that the final concentrations of the test compounds in the reaction system were in a range of 0.02-5000 nM, and the final concentration of DMSO was 0.5%. […] After the incubation was completed, the fluorescence intensity of each well was measured at the excitation wavelength of 337 nm and the emission wavelengths of 620 nm and 665 nm with an EnVision microplate reader (PerkinElmer) in the HTRF mode, and Ratio values were calculated using the formula: Ratio=(665 nm/620 nm)×104. The inhibition rates of the compounds at each concentration were calculated by comparing the fluorescence intensity ratio with that of the control group. […]

Human KRAS G12C = molecular target: T2, Human KRAS G12C (Homo sapiens, UniProt P01116, G12C); assay: KRAS G12C:GTP binding assay (HTRF kit)
T2 construct: purchased PerkinElmer
T2 sequence (P01116 1-188 isoform P01116-2 G12C): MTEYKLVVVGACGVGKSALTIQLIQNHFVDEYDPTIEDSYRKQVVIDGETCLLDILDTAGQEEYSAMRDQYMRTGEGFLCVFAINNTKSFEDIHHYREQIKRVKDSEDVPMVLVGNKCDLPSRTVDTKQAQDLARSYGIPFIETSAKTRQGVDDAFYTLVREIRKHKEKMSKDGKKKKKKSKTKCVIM
Method: Test Example 4: KRAS G12C Binding Assay
In this method, the inhibitory effects of the compounds on the binding of KRAS G12C to GTP were assayed by a homogeneous time-resolved fluorescence (HTRF) technique using a KRAS G12C:GTP binding assay kit (PerkinElmer).
as §1

Human KRAS G12D = molecular target: T3, Human KRAS G12D (Homo sapiens, UniProt P01116, G12D); assay: KRAS-G12D/GTP binding assay (HTRF kit)
T3 construct: purchased PerkinElmer
T3 sequence (P01116 1-188 isoform P01116-2 G12D): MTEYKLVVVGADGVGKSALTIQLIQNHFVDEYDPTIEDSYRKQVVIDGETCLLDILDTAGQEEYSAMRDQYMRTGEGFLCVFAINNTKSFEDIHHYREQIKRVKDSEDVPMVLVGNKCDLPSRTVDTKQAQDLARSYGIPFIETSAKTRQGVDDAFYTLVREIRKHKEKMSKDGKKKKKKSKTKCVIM
Method: Test Example 1: KRAS G12D Binding Assay
In this method, the inhibitory effects of the compounds on the binding of KLRAS G12D to GTP were assayed by a homogeneous time-resolved fluorescence (HTRF) technique using a KLRAS-G12D/GTP binding assay kit (PerkinElmer).
as §1, with “a” for “a stock”, “mM, and then” for “mM. The stock solutions of the compounds were”, “gradient” for “gradient with DMSO, and then were subjected to second dilution”, “nm)×[…].” for “nm)×104.”

T1 sequence (P01116 1-188 isoform P01116-2): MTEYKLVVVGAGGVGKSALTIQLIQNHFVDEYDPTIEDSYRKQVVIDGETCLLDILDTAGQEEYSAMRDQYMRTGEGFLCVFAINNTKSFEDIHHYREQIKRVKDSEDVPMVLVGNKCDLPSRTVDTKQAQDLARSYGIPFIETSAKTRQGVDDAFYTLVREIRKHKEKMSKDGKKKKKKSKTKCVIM

IC50 (Human KRAS WT)	IC50 (Human KRAS G12C)	IC50 (Human KRAS G12D)	SMILES
500 to 1000 nM	≤ 500 nM	≤ 500 nM	CCc1cccc2cc(O)cc(-c3ncc4c(N5CCC[C@@](C)(O)C5)nc(OCC5(CN6CCN(CC7CCC8(CC7)CCN(C(=O)c7ccc(Cl)c(N9CCC(=O)NC9=O)c7)CC8)CC6)CC5)nc4c3F)c12 [Example 3, (R)-1-(2-chloro-5-(9-((4-((1-(((7-(8-ethyl-3-hydroxynaphthalen-1-yl)-8-fluoro-4-(3-hydroxy-3-methylpiperidin-1-yl)pyrido[4,3-d]pyrimidin-2-yl)oxy)methyl)cyclopropyl)methyl)piperazin-1-yl)methyl)-3-azaspiro[5.5]undecane-3-carbonyl)phenyl)dihydropyrimidine-2,4(1H,3H)-dione]
1000 to 10000 nM	500 to 1000 nM	≤ 500 nM	C#Cc1c(F)ccc2cc(O)cc(-c3ncc4c(N5CCC[C@@](C)(O)C5)nc(OCC5(CN6CCN(CC7CCC8(CC7)CCN(C(=O)c7ccc(Cl)c(N9CCC(=O)NC9=O)c7)CC8)CC6)CC5)nc4c3F)c12 [Example 1, (R)-1-(2-chloro-5-(9-((4-((1-(((7-(8-ethynyl-7-fluoro-3-hydroxynaphthalen-1-yl)-8-fluoro-4-(3-hydroxy-3-methylpiperidin-1-yl)pyrido[4,3-d]pyrimidin-2-yl)oxy)methyl)cyclopropyl)methyl)piperazin-1-yl)methyl)-3-azaspiro[5.5]undecane-3-carbonyl)phenyl)dihydropyrimidine-2,4(1H,3H)-dione]
